Reference: patent US7537912B2, “Methods of measuring luminogenic activity with a protected coelenterazine” (Promega Corporation, priority 2001, dated 2009)

What was measured:
[1] = test system: Untransfected CHO (which do not naturally produce luciferase); assay: Localization of luminescence, untransfected cells; format: cell-based, Chinese hamster; conditions: Table F, 100 μM substrate; for RL (RLU): after addition of purified Renilla luciferase; for Subs (RLU): before exogenous luciferase
Description: (§1) Similarly, 100 μL portions of media (F12) containing 100 μM of either coelenterazine or triacetyl coelenterazine were placed in wells containing cells or wells alone. These wells were then read for 1 sec/well with an ORION Luminometer (BERTHHOLD) immediately following (coelenterazine) and 4 minutes post-addition (triacetyl coelenterazine) (Table F; Subs).
(§2) Thereafter, 0.5 μL of purified Renilla luciferase (3.96×10^−5 M/Reaction (Chemicon) was added to each well. All wells were then read for 1 second/well (Table F; RL).

[2] = test system: CHO cells transfected with pHRL CMV (Renilla luciferase); assay: Live cell assay, signal to background ratio; format: cell-based, Chinese hamster; conditions: for Change of luminescence from cell samples after Tergitol NP-9 was added: TERGITOL NP-9 final concentration 1%
From the text: In these examples, the behavior of luminophores and protected luminophores were examined in situ in a variety of cultured cells. Cells were transiently or stably transfected with a plasmid encoding Renilla luciferase. Luminescence was compared between cells contacted with a coelenterazine (VI or VII) or a protected luminophore (IX, XV, or XVI).
Chinese hamster ovary (CHO) cells were maintained in Ham's F-12 media supplemented with 10% fetal bovine serum (FBS). HeLa and 293 cells were maintained in DMEM media supplemented with 10% fetal calf serum (FCS). All cell lines were grown at 37° C. in the presence of 5% CO2. Cells were transiently transfected with either 15 μg pUC19 or pRL-Control plasmid (PROMEGA CORPORATION, E6271 ) at a concentration of 7.5×10^5 cells per 10 cm plate using Tfx-20 (PROMEGA CORP., E2391) or TransFast™ Transfection Reagent (PROMEGA CORP., E2431). The following day, transfections were pooled and split into 48 wells of a white DYNEX 96-well luminometer plate.
The cells thus prepared were then subjected to a variety of assays. Reaction buffers for these assays were prepared using either DMEM or F12 media with FBS or FCS (10% by volume). Coelenterazine VI, coelenterazine VII or one of protected luminophores IX, XV, or XVI was then added to yield a concentration of 60 μM. These buffers were then used for luminescence measurements in the following assays. Luminescence was measured using an ORION luminometer.
Media was aspirated from the cells after 24 or 48 hours following transfection. The cells were washed with 100 μl per well of 1× phosphate buffered saline. Reaction buffer containing either VI or IX was titrated into complete media by half-logs, and these solutions were added to empty wells and to wells containing transfected cells. Luminescence was measured 5 minutes after media replacement. Immediately following the initial measurement, TERGITOL NP-9 (SIGMA CHEMICALS) was added to a final concentration of 1%. Samples were mixed for approximately 15 seconds, and luminescence was integrated over 1 second per well. The luminescence measured from cell samples increased after Tergitol NP-9 was added to samples containing coelenterazine VI or VII.
Autoluminescence was taken as the luminescence measured for samples containing medium and serum alone. The luminescence divided by the autoluminescence was taken as the signal to background ratio (S/B).

[3] = test system: CHO hRL25 cells (which express luciferase); assay: Localization of luminescence, cells expressing luciferase; format: cell-based, Chinese hamster; conditions: 100 μM substrate; for RL (RLU): after addition of purified Renilla luciferase; for Subs (RLU): before exogenous luciferase
Description: (§3) CHO hRL25 cells (which express luciferase) (4.5 mL of (7.5×10^5 cells)/(plate/5×10^9 cells/mL) were resuspended in 5.5 mL media and put into 96 well plates. The next day, the cells were aspirated, washed with 100 μL PBS, and then aspirated again. 100 μL of media (F12) containing no substrate (background) was then added to wells containing no cells. These wells were then read for 1 sec/well with an ORION Luminometer (BERTHHOLD) (Table E; Bkg).
(§4) Similarly, 100 μL portions of media containing 100 μM of either POM-h or coelenterazine-h were placed in wells containing cells or wells alone. These wells were then read for 1 sec/well with an ORION Luminometer (BERTHHOLD) immediately following (coelenterazine) and 10 minutes post-addition (POM-h) (Table E; Subs).
(§5) Thereafter, 0.5 μL of purified Renilla luciferase (3.96×10^−5 M/Reaction (Chemicon) was added to each well. All wells were then read for 1 second/well (Table E; RL).
as §1, §2

[4] = target: T1, Renilla luciferase (Renilla reniformis, UniProt P27652); assay: Localization of luminescence, media only wells with and without purified Renilla luciferase; format: biochemical; conditions: Table E, no cells, 100 μM substrate
T1 construct: purchased Chemicon Corp
T1 sequence (P27652 1-311): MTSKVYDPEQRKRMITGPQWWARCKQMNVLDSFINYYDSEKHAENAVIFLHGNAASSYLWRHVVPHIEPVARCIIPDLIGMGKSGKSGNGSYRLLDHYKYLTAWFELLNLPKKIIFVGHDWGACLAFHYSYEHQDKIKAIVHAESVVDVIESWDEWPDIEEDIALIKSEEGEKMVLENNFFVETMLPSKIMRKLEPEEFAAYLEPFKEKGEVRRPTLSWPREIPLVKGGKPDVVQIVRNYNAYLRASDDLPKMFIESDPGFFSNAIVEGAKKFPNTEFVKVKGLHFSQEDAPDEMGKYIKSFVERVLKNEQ
Description: as §3, §4, §5

[5] = Table F, hRL2 cells, read immediately (coelenterazine) or 4 minutes post-addition (triacetyl coelenterazine)

Row | Molecule | RL (RLU) [1] | Subs (RLU) [1] | Change of luminescence from cell samples after Tergitol NP-9 was added [2] | RL (RLU) ([3]; Table F, hRL2 cells) | Subs (RLU) [3, 5] | RL (RLU) ([4]; after addition of purified Renilla luciferase) | Subs (RLU) ([4]; before luciferase) | RL (RLU) ([3]; Table E, hRL25 cells) | Subs (RLU) ([3]; Table E, hRL25 cells, read immediately (coelenterazine-h) or 10 minutes post-addition (POM-h)) | Ratios - compound/reference Luminesc. ([2]; reference compound VI, CHO cells transfected with pHRL CMV, 5 minutes after media replacement) | Ratios - compound/reference S/N ([2]; reference compound VI, luminescence divided by autoluminescence) | Ratios - compound/reference Autolum. ([2]; reference compound VI, medium and serum alone)
1 | coelenterazine [compound VI, reference compound] | 11930147 RLU | 6253 RLU | increased | 110008374 RLU | 139842 RLU |  |  |  |  |  |  | 
2 | O=c1c(Cc2ccccc2)nc2c(Cc3ccccc3)[nH]c(-c3ccc(O)cc3)cn1-2 [compound VII, coelenterazine-h, reference compound] |  |  | increased |  |  | 278467 RLU | 763 RLU | 331381 RLU | 39342 RLU |  |  | 
3 | CC(=O)Oc1ccc(Cc2nc3c(Cc4ccccc4)nc(-c4ccc(OC(C)=O)cc4)cn3c2OC(C)=O)cc1 [compound IX, triacetyl-coelenterazine] | 8910 RLU | 864 RLU | dropped almost to the level of autoluminescence | 229111 RLU | 224353 RLU |  |  |  |  | 1.5 | 9.1 | 0.2
